pIC50: −log10 of the molar value. Where “and” joins values, the source holds several entries; their conditions need not be identical. Equal entries are not always repeated.
Experiments:
[1] = tested on: HepG2; experiment: Cytotoxicity assay (MTT); assay type: cell-based, human; details: for pIC50: MTT, 24 h
[2] = target: T1, E. coli GyrA S97L/GyrB gyrase (Escherichia coli, UniProt P0AES4, S97L); experiment: Gyrase supercoiling inhibition, GyrA S97L variant; assay type: biochemical
T1 construct: represents the first full-length E. coli gyrase structure in complex with an intact DNA molecule; 10xHis; 2xStrep (Twin-Strep); made in house
Procedure: Of this stock solution, 27 µl was aliquoted for each reaction in 1.5 ml Eppendorf tubes and supplemented with 0.6 µl of the appropriate compound dilution or corresponding solvent with a final DMSO concentration of 2%. The reactions were started with 3 µl of enzyme (1 U for WT gyrase retrieved from Inspiralis Limited or 25–30 nM gyrase variants purified in house) in dilution buffer (50 mM Tris–HCl (pH 7.5), 100 mM KCl, 2 mM DTT, 1 mM EDTA and 50% (wt/vol) glycerol) for a final volume of 30 µl. Reactions were run at 37 °C for 30 min and stopped with the addition of 30 µl STEB buffer (40% (wt/vol) sucrose, 100 mM Tris–HCl pH 8, 100 mM EDTA, 0.5 mg ml^−1 bromophenol blue) and 30 µl of a chloroform:isoamyl alcohol solution (24:1 vol/vol). After brief vortexing and centrifugation at 2,300g for 1 min, 20 µl of the aqueous phase was loaded onto 1% (wt/vol) agarose gels in TAE (Tris–acetate […]) gel. The gels were run at 85 V for 2 h followed by staining (15 min) in 1 µg ml^−1 ethidium bromide and destaining (5–10 min) in water. DNA was visualized (602/50, UV Trans, auto optimal exposure) with a ChemiDoc MP (Bio-Rad Laboratories Inc., equipped with ImageLab Touch Software v2.0.0.27) and the percentage of supercoiled DNA relative to the total amount material per lane was determined with ImageLab 6.1 software (Bio-Rad Laboratories Inc.) or ImageJ[47] software. […]

[3] = HepG2, 0.023 uM, experiment n = 1, technical triplicates
[4] = HepG2, 0.023 uM, experiment n = 2, technical triplicates
[5] = HepG2, 0.068 uM, experiment n = 1, technical triplicates
[6] = HepG2, 0.068 uM, experiment n = 2, technical triplicates
[7] = HepG2, 0.21 uM, experiment n = 1, technical triplicates
[8] = HepG2, 0.21 uM, experiment n = 2, technical triplicates
[9] = HepG2, 0.62 uM, experiment n = 1, technical triplicates
[10] = HepG2, 0.62 uM, experiment n = 2, technical triplicates
[11] = HepG2, 1.85 uM, experiment n = 1, technical triplicates
[12] = HepG2, 1.85 uM, experiment n = 2, technical triplicates

For O=S(=O)(NC[C@@H]1CC[C@H](c2ccc(-c3ccc(F)cc3)cc2)N1)c1cccc2cnccc12 [Compound 101], the “MTT data (raw readout)” value [1, 3] was 0.470 and 0.394 and 0.364, the “MTT data (raw readout)” value [1, 4] was 0.305 and 0.260 and 0.288 and the “MTT data (raw readout)” value [1, 5] was 0.452 and 0.420 and 0.368. For the same compound, the “MTT data (raw readout)” value [1, 6] was 0.322 and 0.313 and 0.323, the “MTT data (raw readout)” value [1, 7] was 0.390 and 0.419 and 0.407 and the “MTT data (raw readout)” value [1, 8] was 0.324 and 0.279 and 0.267. For the same compound, the “MTT data (raw readout)” value [1, 9] was 0.368 and 0.340 and 0.370, the “MTT data (raw readout)” value [1, 10] was 0.315 and 0.269 and 0.267 and the “MTT data (raw readout)” value [1, 11] was 0.439 and 0.392 and 0.378. For the same compound, the “MTT data (raw readout)” value [1, 12] was 0.289 and 0.297 and 0.299, the “MTT data (raw readout)” value ([1]; HepG2, 5.6 uM, experiment n = 1, technical triplicates) was 0.403 and 0.384 and 0.371 and the “MTT data (raw readout)” value ([1]; HepG2, 5.6 uM, experiment n = 2, technical triplicates) was 0.315 and 0.277 and 0.266. The “MTT data (raw readout)” value ([1]; HepG2, 16.7 uM, experiment n = 1, technical triplicates) was 0.208 and 0.211 and 0.189, the “MTT data (raw readout)” value ([1]; HepG2, 16.7 uM, experiment n = 2, technical triplicates) was 0.140 and 0.112 and 0.095 and the pIC50 ([1]; Homo sapiens, HepG2, 24 h) was 4.89.
For O=S(=O)(NC[C@H]1CC[C@@H](c2ccc(-c3ccc(F)nc3)cc2)N1)c1cccc2cnccc12 [LEI-801], the “supercoiling inhibition of GyrA S97L variant” value [2] was “highly resistant”, the “MTT data (raw readout)” value ([1]; HepG2, 0.023 uM, experiment n = 1, technical triplicates, listed as LEI-801 (99)) was 0.358 and 0.291 and 0.289 and the “MTT data (raw readout)” value ([1]; HepG2, 0.023 uM, experiment n = 2, technical triplicates, listed as LEI-801 (99)) was 0.296 and 0.284 and 0.274. The “MTT data (raw readout)” value ([1]; HepG2, 0.068 uM, experiment n = 1, technical triplicates, listed as LEI-801 (99)) was 0.356 and 0.307 and 0.313, the “MTT data (raw readout)” value ([1]; HepG2, 0.068 uM, experiment n = 2, technical triplicates, listed as LEI-801 (99)) was 0.301 and 0.287 and 0.260 and the “MTT data (raw readout)” value ([1]; HepG2, 0.21 uM, experiment n = 1, technical triplicates, listed as LEI-801 (99)) was 0.330 and 0.315 and 0.323. For the same compound, the “MTT data (raw readout)” value ([1]; HepG2, 0.21 uM, experiment n = 2, technical triplicates, listed as LEI-801 (99)) was 0.350 and 0.289 and 0.265, the “MTT data (raw readout)” value ([1]; HepG2, 0.62 uM, experiment n = 1, technical triplicates, listed as LEI-801 (99)) was 0.417 and 0.319 and 0.320 and the “MTT data (raw readout)” value ([1]; HepG2, 0.62 uM, experiment n = 2, technical triplicates, listed as LEI-801 (99)) was 0.301 and 0.282 and 0.253. The “MTT data (raw readout)” value ([1]; HepG2, 1.85 uM, experiment n = 1, technical triplicates, listed as LEI-801 (99)) was 0.361 and 0.335 and 0.354, the “MTT data (raw readout)” value ([1]; HepG2, 1.85 uM, experiment n = 2, technical triplicates, listed as LEI-801 (99)) was 0.263 and 0.269 and 0.244 and the “MTT data (raw readout)” value ([1]; HepG2, 5.6 uM, experiment n = 1, technical triplicates, listed as LEI-801 (99)) was 0.370 and 0.351 and 0.360. For the same compound, the “MTT data (raw readout)” value ([1]; HepG2, 5.6 uM, experiment n = 2, technical triplicates, listed as LEI-801 (99)) was 0.293 and 0.267 and 0.296, the “MTT data (raw readout)” value ([1]; HepG2, 16.7 uM, experiment n = 1, technical triplicates, listed as LEI-801 (99)) was 0.376 and 0.357 and 0.431 and the “MTT data (raw readout)” value ([1]; HepG2, 16.7 uM, experiment n = 2, technical triplicates, listed as LEI-801 (99)) was 0.300 and 0.252 and 0.259. The “MTT data (raw readout)” value ([1]; HepG2, 50 uM, experiment n = 1, technical triplicates, listed as LEI-801 (99)) was 0.327 and 0.318 and 0.307, the “MTT data (raw readout)” value ([1]; HepG2, 50 uM, experiment n = 2, technical triplicates, listed as LEI-801 (99)) was 0.232 and 0.220 and 0.225 and the pIC50 ([1]; Homo sapiens, HepG2, 24 h) was under 4.00. For the same compound, the pIC50 ([1]; listed as LEI-801 (99)) was under 4.30.
O=S(=O)(NCCNCc1ccc(-c2ccc(F)nc2)cc1)c1cccc2cnccc12 [Compound 60] was tested, and the “MTT data (raw readout)” value [1, 3] was 0.514 and 0.522 and 0.506, the “MTT data (raw readout)” value [1, 4] was 0.553 and 0.550 and 0.561 and the “MTT data (raw readout)” value [1, 5] was 0.526 and 0.514 and 0.522. For the same compound, the “MTT data (raw readout)” value [1, 6] was 0.571 and 0.568 and 0.585, the “MTT data (raw readout)” value [1, 7] was 0.544 and 0.520 and 0.508 and the “MTT data (raw readout)” value [1, 8] was 0.610 and 0.553 and 0.611. The “MTT data (raw readout)” value [1, 9] was 0.525 and 0.501 and 0.502, the “MTT data (raw readout)” value [1, 10] was 0.621 and 0.610 and 0.573 and the “MTT data (raw readout)” value [1, 11] was 0.546 and 0.544 and 0.528. For the same compound, the “MTT data (raw readout)” value [1, 12] was 0.581 and 0.605, the pIC50 ([1]; Homo sapiens, HepG2, 24 h) was under 4.00 and the pIC50 [1] was under 4.30.
In the case of O=S(=O)(NC[C@@H]1CC[C@H](c2ccc(-c3cccnc3)cc2)N1)c1cccc2cnccc12 [LEI-800], the “supercoiling inhibition of GyrA S97L variant” value [2] was “highly resistant”, the “MTT data (raw readout)” value ([1]; HepG2, 0.023 uM, experiment n = 1, technical triplicates, listed as LEI-800 (102)) was 0.404 and 0.388 and 0.378 and the “MTT data (raw readout)” value ([1]; HepG2, 0.023 uM, experiment n = 2, technical triplicates, listed as LEI-800 (102)) was 0.268 and 0.286 and 0.353. For the same compound, the “MTT data (raw readout)” value ([1]; HepG2, 0.068 uM, experiment n = 1, technical triplicates, listed as LEI-800 (102)) was 0.391 and 0.379 and 0.435, the “MTT data (raw readout)” value ([1]; HepG2, 0.068 uM, experiment n = 2, technical triplicates, listed as LEI-800 (102)) was 0.250 and 0.293 and 0.379 and the “MTT data (raw readout)” value ([1]; HepG2, 0.21 uM, experiment n = 1, technical triplicates, listed as LEI-800 (102)) was 0.377 and 0.445 and 0.431. For the same compound, the “MTT data (raw readout)” value ([1]; HepG2, 0.21 uM, experiment n = 2, technical triplicates, listed as LEI-800 (102)) was 0.243 and 0.281 and 0.327, the “MTT data (raw readout)” value ([1]; HepG2, 0.62 uM, experiment n = 1, technical triplicates, listed as LEI-800 (102)) was 0.371 and 0.373 and 0.384 and the “MTT data (raw readout)” value ([1]; HepG2, 0.62 uM, experiment n = 2, technical triplicates, listed as LEI-800 (102)) was 0.248 and 0.278 and 0.343. The “MTT data (raw readout)” value ([1]; HepG2, 1.85 uM, experiment n = 1, technical triplicates, listed as LEI-800 (102)) was 0.402 and 0.403 and 0.424, the “MTT data (raw readout)” value ([1]; HepG2, 1.85 uM, experiment n = 2, technical triplicates, listed as LEI-800 (102)) was 0.281 and 0.293 and 0.337 and the pIC50 ([1]; Homo sapiens, HepG2, 24 h) was under 4.00. It also gave a pIC50 ([1]; listed as LEI-800 (102)) of under 4.30.

From PMC11374673, “Discovery of isoquinoline sulfonamides as allosteric gyrase inhibitors with activity against fluoroquinolone-resistant bacteria” (Nature Chemistry, 2024)
